# From ChEMBL document CHEMBL1212749, “In vitro activity of mirincamycin (U24729A) against Plasmodium falciparum isolates from Gabon” (Antimicrob Agents Chemother, 2010)
# Key:
# Plasmodium falciparum [1] = assay: Ratio of IC50 for Plasmodium falciparum 3D7A after 6 days to IC50 for Plasmodium falciparum 3D7A after 3 days by HRP2 enzyme-linked immunosorbent assay; type: functional
# Plasmodium falciparum [2] = assay: Antimalarial activity against Plasmodium falciparum clinical isolate after 6 days by HRP2 enzyme-linked immunosorbent assay; type: functional, organism-based; settings: 144 h
IC50 (Plasmodium falciparum [2]) [µM],SMILES,Ratio IC50 (Plasmodium falciparum [1])
–,CCCCCC1CN[C@@H](C(=O)N[C@H]([C@H]2O[C@H](SC)[C@H](O)[C@@H](O)[C@H]2O)[C@@H](C)Cl)C1 (stereo partly drawn),> 10000
0.0116,CCC[C@@H]1C[C@@H](C(=O)N[C@@H]([C@H]2O[C@H](SC)[C@H](O)[C@@H](O)[C@H]2O)[C@H](C)Cl)N(C)C1 [CLINDAMYCIN],–
0.72,C[C@H]1c2cccc(O)c2C(=O)C2=C(O)[C@]3(O)C(=O)C(C(N)=O)=C(O)[C@@H](N(C)C)[C@@H]3[C@@H](O)[C@@H]21 [DOXYCYCLINE],–
